Percent span and EC50 data for 32 molecules are collected here from PubChem BioAssay AID651855 (NMMLSC, 2012).

A short description of assay [1]: interference with FAP-CCR5 fluorogen signal, dose response, counter-screen for beta2AR agonist project, cell-based, FAP-tagged human CCR5, Powderset3 (AID 651855). To be noted: FAP-tagged hCCR5 cells, MG2p fluorogen binding, flow cytometry; stronger effect = higher value.
Assay [2] concerns FAP-tagged hCCR5 cells, MG2p fluorogen binding, flow cytometry. The assay is described as above.

For orientation: EC50 means the concentration at which the effect is half-maximal.

The source made the active and inactive calls.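 The calls were made as follows: active = compounds whose fitted concentration for half loss of dye binding is under 10 µM; inactive = the rest.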

As for `O=C(c1cc2c(=O)n3ccccc3nc2s1)N1CCN(Cc2ccc3c(c2)OCO3)CC1`, in assay [1], the percent span is 39.7% (inactive). On the same count and under the same terms, in the case of `CC(C)CNc1ncnc2c1sc1nc(N3CCOCC3)c3c(c12)CC(C)(C)OC3` it was -9.78% (inactive). Take `CC(=O)Nc1ccc(S(=O)(=O)N2CCC(Oc3ccc(-n4cnnn4)cc3)CC2)cc1`: the EC50 in assay [2] is 60.9 nM.

As to `C=CCn1c(CCNC(=O)c2cccs2)nnc1SCC(=O)c1ccc(Cl)cc1`, in assay [2], the EC50 is 7.09 nM. With `CC1(C)Cc2c(c(N3CCOCC3)nc3sc4c(NCCN)ncnc4c23)CO1`, the percent span in assay [1] was 116% (inactive).

Turning to `CC(Sc1nc(-c2ccccc2)cc(C(F)(F)F)n1)C(=O)N1CCCCC1` (configuration not stated), the EC50 in assay [2] is 25.5 nM.

Take `CCC(NC(=O)c1cc(COc2ccc(C)nc2)on1)c1ccc(C)cc1` (configuration not stated): the percent span in assay [1] is 53.2% (inactive). Regarding `CC(Oc1ccc(Cl)cc1Cl)c1nc(-c2ccc(NC(=O)c3ccccn3)cc2)no1` (configuration not stated), the EC50 in assay [2] is 427 nM. Regarding `Cc1ccc(OCc2nnc(SCc3nc4ccccc4[nH]3)n2Cc2ccco2)cc1`, the percent span in assay [1] is 61.9% (inactive).

`Cc1ccc(NC(=O)C(c2ccc(Cl)cc2)N2CCOCC2)cc1` (configuration not stated): the percent span in assay [1] is 49.5% (inactive). For `C=CCn1c(CCNC(=O)c2cccs2)nnc1SCC(=O)c1cccc([N+](=O)[O-])c1`, in assay [2], the EC50 is 2.41 nM.

Take `CC(Sc1nc(-c2ccccc2)cc(C(F)(F)F)n1)C(=O)N1CCOCC1` (configuration not stated): the EC50 in assay [2] is 26.9 nM.

With `CC1(C)Cc2c(c(N3CCCC3)nc3sc4c(N5CCN(CCO)CC5)ncnc4c23)CO1`, the EC50 in assay [2] was 2960 nM. `CC(Oc1ccc(Cl)cc1Cl)c1nc(-c2ccc(NC(=O)c3ccco3)cc2)no1` (configuration not stated): the percent span in assay [1] was 42.1% (inactive). On to `Cc1ncc(CN2CCCC(C(=O)Nc3ccc(-c4cccc(F)c4)cc3)C2)s1` (configuration not stated), for which, in assay [2], the EC50 was 1240 nM. With `CN(Cc1ccccc1)S(=O)(=O)c1ccc(NS(=O)(=O)Cc2ccccc2)cc1`, the EC50 in assay [2] was 106 nM.

As for `c1ccc(-c2nnc(SCc3nc4ccccc4[nH]3)n2Cc2ccco2)cc1`, in assay [1], the percent span is 15.8% (inactive). For the molecule `C=CCn1c(CCNC(=O)c2cccs2)nnc1SCC(=O)c1ccc(Br)cc1`, in assay [2], the 50% effective concentration (EC50) was 17.5 nM.

As for `CC(C)Cc1nc2sc3c(NCc4ccco4)ncnc3c2c2c1COC(C)(C)C2`, in assay [2], the EC50 was 39.4 nM. Turning to `CSc1nc(SCCO)c2sc3nc(-c4ccco4)c4c(c3c2n1)CC(C)(C)OC4`, the EC50 in assay [2] is 1870 nM. In the case of `Cc1ccc(OCc2cc(C(=O)N(C)Cc3cnn(-c4ccccc4C)c3)no2)cn1`, the EC50 in assay [2] is 110 nM.

Regarding `O=C(NC1CCc2ccccc21)c1cc(COc2cncc(Cl)c2)on1` (configuration not stated), in assay [1], the percent span was 4.03% (inactive).

Take `COc1ccc(OC)c(CCNC(=O)C2CCN(c3nnc(-n4cccc4)s3)CC2)c1`: in assay [2], the EC50 is 919 nM.

In the case of `Clc1ccc(OCc2nnc(SCc3nc4ccccc4[nH]3)n2Cc2ccco2)cc1`, the EC50 in assay [2] is 10 nM.

With `Cc1ccccc1N1CCN(c2ncnc3c2cnn3Cc2ccc(Cl)cc2)CC1`, the EC50 in assay [2] is 4330 nM. Take `Cc1ccc(-c2nc3ncccc3o2)cc1NC(=O)c1sc2ccccc2c1Cl`: the percent span in assay [1] was 35.8% (inactive). Consider `Cc1ccc(Cn2ccc(NC(=O)c3cc4nc(-c5ccco5)cc(C(F)(F)F)n4n3)n2)cc1`, for which the EC50 in assay [2] was 8.96 nM. On the same count and under the same terms, with `Cn1c(N2CCN(c3ccccn3)CC2)nc2c1c(=O)n(Cc1ccc(Cl)cc1)c(=O)n2C` the figure was 20.9 nM.

As for `COC(=O)c1ccc(CNC(=O)c2cc(COc3cncc(Cl)c3)on2)cc1`, the percent span in assay [1] was 28.2% (inactive). For `Clc1cccc(-c2nnc(SCc3nc4ccccc4[nH]3)n2Cc2ccco2)c1`, the EC50 in assay [2] is 10400 nM. In the case of `CCCCN(C(=O)c1ccc(NC(=O)C(C)C)cc1)c1ccccc1`, the percent span in assay [1] was 31.9% (inactive). On the same count and under the same terms, with `COCc1ccc(CN2CCCC(C(=O)Nc3ccc(-c4cccc(OC)c4)cc3)C2)o1` (configuration not stated) the figure was 41.6% (inactive).
